Source: patent US11226337B2, “Chemoproteomic profiling of protein electrophilic and oxidative post-translational modifications” (Zenagem, LLC, priority 2017, dated 2022)

Legend:
Experiment in all cases: SILAC RP-ABPP
Assay type in all cases: cell-based
[1] = molecular target: T1, CMBL Carboxymethylenebutenolidase homolog (Q96DG6) (Homo sapiens, UniProt Q96DG6); conditions: SILAC H/L, HEK293T
T1 construct: In Situ Labelling of Cells with Hydrazine Probes for MS Experiments; endogenous in cells; host or cells: HEK293T and/or MDA-MB-231
T1 sequence (Q96DG6 whole entry): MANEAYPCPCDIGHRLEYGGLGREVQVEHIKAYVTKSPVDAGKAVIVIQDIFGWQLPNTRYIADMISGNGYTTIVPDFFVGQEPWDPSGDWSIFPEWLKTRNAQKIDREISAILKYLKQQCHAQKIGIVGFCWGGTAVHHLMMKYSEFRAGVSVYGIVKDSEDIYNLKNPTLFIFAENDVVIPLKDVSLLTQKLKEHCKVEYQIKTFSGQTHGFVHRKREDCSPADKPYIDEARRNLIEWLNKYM
Outline: (§1)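 Heavy SILAC HEK293T or MDA-MB-231 cells were treated with a clickable hydrazine probe; light cells received the non-clickable analogue (enrichment) or the probe plus 10-fold excess non-clickable competitor (competition). Mixed proteomes underwent CuAAC with 100 μM biotin-azide for 1 h. Heavy:light ratios were taken as median peptide ratios (≥3 peptides) averaged over ≥3 replicates.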

[2] = molecular target: T2, FTL Ferritin light chain (P02792) (Homo sapiens, UniProt P02792); conditions: SILAC H/L, MDA-MB-231
T2 construct: endogenous in cells; host or cells: HEK293T or MDA-MB-231
T2 sequence (P02792 2-175): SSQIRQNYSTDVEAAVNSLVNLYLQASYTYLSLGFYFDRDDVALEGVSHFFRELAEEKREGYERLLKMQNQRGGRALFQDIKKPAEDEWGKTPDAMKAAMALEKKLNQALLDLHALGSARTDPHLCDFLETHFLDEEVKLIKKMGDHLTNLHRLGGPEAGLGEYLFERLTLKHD
Outline: as §1

[3] = molecular target: T3, CYCS Cytochrome c (P99999) (Homo sapiens, UniProt P99999); conditions: SILAC H/L, HEK293T
T3 construct: In Situ Labelling of Cells with Hydrazine Probes for MS Experiments; endogenous in cells; host or cells: HEK293T and/or MDA-MB-231
T3 sequence (P99999 whole entry): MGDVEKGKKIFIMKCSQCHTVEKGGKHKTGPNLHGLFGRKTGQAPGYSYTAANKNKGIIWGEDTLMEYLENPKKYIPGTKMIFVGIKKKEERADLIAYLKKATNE
Outline: as §1

[4] = molecular target: T4, BCAT1 Branchedchainaminoacid (P54687) (Homo sapiens, UniProt P54687); conditions: SILAC H/L, MDA-MB-231
T4 construct: endogenous in cells; host or cells: HEK293T or MDA-MB-231
T4 sequence (P54687 whole entry): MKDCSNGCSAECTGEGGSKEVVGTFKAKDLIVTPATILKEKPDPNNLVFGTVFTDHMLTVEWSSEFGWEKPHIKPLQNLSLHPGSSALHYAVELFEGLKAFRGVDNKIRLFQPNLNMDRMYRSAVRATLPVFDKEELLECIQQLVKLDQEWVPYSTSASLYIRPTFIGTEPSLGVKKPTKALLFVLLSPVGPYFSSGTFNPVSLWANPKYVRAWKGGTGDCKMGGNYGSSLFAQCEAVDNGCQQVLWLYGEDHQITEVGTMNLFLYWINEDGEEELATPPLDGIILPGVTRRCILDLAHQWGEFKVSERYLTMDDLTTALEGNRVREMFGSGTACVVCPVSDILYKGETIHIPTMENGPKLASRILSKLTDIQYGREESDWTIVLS
Outline: as §1

[5] = molecular target: T5, PTGR2 Prostaglandin reductase 2 (Q8N8N7) (Homo sapiens, UniProt Q8N8N7); conditions: SILAC H/L, MDA-MB-231
T5 construct: endogenous in cells; host or cells: HEK293T or MDA-MB-231
T5 sequence (Q8N8N7 whole entry): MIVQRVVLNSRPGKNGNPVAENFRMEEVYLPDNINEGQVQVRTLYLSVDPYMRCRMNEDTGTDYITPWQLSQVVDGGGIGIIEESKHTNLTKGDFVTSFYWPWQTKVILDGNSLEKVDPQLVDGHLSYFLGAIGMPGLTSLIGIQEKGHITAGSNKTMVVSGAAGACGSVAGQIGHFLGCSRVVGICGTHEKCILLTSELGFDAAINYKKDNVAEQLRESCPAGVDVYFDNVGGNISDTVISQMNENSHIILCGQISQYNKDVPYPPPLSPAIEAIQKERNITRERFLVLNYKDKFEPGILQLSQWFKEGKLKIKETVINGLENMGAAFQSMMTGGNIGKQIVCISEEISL
Outline: as §1

[6] = molecular target: T6, P4HA2 Prolyl 4hydroxylase subunit alpha2 (O15460) (Homo sapiens, UniProt O15460); conditions: SILAC H/L, MDA-MB-231
T6 construct: endogenous in cells; host or cells: HEK293T or MDA-MB-231
T6 sequence (O15460 22-535): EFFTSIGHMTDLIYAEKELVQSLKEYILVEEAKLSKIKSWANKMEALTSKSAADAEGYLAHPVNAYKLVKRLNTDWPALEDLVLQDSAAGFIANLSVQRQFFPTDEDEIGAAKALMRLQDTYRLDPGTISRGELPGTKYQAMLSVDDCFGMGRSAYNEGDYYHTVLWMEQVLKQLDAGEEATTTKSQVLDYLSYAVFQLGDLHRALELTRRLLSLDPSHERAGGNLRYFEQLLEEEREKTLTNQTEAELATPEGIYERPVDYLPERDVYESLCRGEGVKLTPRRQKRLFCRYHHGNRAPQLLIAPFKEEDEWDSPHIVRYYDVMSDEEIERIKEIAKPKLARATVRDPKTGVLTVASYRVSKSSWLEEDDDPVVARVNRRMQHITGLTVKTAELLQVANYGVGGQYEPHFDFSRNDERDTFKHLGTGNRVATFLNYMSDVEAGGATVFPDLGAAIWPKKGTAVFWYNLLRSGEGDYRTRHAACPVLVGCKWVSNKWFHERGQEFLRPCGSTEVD
T6 sequence (P07237 18-508 partner): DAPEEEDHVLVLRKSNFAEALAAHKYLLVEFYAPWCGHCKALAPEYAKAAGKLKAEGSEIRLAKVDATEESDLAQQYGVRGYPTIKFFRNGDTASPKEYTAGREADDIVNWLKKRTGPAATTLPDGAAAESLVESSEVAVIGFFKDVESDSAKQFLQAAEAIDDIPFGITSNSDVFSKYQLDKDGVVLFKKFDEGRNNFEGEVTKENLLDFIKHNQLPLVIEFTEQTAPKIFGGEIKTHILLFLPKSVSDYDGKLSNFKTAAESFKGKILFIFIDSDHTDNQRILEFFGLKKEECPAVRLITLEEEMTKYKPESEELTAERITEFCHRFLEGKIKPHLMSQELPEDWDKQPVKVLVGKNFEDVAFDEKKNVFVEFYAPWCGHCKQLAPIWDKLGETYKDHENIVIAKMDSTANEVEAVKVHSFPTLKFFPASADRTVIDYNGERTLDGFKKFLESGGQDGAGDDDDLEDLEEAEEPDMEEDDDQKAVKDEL
Outline: as §1

[7] = molecular target: T7, KDM5C Lysinespecific demethylase 5C (P41229) (Homo sapiens, UniProt P41229); conditions: SILAC H/L, HEK293T
T7 construct: In Situ Labelling of Cells with Hydrazine Probes for MS Experiments; endogenous in cells; host or cells: HEK293T and/or MDA-MB-231
Outline: as §1

CAT Catalase (P04040) = molecular target: T8, CAT Catalase (P04040) (Homo sapiens, UniProt P04040); conditions: SILAC H/L, MDA-MB-231
T8 construct: endogenous in cells; host or cells: HEK293T or MDA-MB-231
T8 sequence (P04040 whole entry): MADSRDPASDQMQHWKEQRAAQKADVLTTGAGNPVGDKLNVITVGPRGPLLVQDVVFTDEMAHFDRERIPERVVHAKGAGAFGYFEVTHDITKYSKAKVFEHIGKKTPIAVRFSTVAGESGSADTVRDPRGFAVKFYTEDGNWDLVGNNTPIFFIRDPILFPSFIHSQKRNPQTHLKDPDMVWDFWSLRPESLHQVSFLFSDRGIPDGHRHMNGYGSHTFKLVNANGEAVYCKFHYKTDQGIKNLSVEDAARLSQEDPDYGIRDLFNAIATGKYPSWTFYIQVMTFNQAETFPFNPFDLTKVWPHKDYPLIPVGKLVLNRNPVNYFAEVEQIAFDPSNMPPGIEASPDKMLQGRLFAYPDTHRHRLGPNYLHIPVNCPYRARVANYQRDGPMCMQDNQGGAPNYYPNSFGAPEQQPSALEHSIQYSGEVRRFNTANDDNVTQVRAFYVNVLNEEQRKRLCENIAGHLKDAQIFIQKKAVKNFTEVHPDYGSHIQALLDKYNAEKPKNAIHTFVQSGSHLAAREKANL
Outline: as §1

[8] = molecular target: T9, ASAH1 Acid ceramidase (Q13510) (Homo sapiens, UniProt Q13510); conditions: SILAC H/L, MDA-MB-231
T9 construct: endogenous in cells; host or cells: HEK293T or MDA-MB-231
T9 sequence (Q13510 22-395): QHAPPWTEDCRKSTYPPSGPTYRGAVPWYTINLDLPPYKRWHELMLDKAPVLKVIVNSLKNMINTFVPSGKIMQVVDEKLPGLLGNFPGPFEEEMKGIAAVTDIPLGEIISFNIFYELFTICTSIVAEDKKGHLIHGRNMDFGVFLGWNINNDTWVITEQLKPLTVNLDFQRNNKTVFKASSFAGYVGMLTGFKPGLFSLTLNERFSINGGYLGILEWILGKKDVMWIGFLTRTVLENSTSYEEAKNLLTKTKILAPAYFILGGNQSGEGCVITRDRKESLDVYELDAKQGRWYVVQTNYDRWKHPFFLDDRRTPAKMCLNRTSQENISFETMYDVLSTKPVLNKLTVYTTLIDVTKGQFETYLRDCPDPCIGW
Outline: as §1

[9] = molecular target: T10, ACAA1 3ketoacylCoA thiolase, peroxisomal (P09110) (Homo sapiens, UniProt P09110); conditions: SILAC H/L, MDA-MB-231
T10 construct: endogenous in cells; host or cells: HEK293T or MDA-MB-231
T10 sequence (P09110 27-424): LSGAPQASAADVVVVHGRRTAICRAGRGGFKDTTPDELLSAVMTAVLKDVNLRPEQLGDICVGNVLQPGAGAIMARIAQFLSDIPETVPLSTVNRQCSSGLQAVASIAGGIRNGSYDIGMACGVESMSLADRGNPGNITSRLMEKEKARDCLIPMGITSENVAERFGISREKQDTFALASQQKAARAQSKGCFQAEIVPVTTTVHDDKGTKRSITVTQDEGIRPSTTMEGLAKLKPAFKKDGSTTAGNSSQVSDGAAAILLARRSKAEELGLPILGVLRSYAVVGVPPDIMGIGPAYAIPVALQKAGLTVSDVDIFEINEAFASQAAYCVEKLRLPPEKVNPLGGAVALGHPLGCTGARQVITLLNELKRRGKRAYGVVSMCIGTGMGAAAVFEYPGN
Outline: as §1

[10] = molecular target: T11, KDM1B Lysinespecific histone demethylase 1B (Q8NB78) (Homo sapiens, UniProt Q8NB78); conditions: SILAC H/L, HEK293T
T11 construct: In Situ Labelling of Cells with Hydrazine Probes for MS Experiments; endogenous in cells; host or cells: HEK293T and/or MDA-MB-231
T11 sequence (Q8NB78 whole entry): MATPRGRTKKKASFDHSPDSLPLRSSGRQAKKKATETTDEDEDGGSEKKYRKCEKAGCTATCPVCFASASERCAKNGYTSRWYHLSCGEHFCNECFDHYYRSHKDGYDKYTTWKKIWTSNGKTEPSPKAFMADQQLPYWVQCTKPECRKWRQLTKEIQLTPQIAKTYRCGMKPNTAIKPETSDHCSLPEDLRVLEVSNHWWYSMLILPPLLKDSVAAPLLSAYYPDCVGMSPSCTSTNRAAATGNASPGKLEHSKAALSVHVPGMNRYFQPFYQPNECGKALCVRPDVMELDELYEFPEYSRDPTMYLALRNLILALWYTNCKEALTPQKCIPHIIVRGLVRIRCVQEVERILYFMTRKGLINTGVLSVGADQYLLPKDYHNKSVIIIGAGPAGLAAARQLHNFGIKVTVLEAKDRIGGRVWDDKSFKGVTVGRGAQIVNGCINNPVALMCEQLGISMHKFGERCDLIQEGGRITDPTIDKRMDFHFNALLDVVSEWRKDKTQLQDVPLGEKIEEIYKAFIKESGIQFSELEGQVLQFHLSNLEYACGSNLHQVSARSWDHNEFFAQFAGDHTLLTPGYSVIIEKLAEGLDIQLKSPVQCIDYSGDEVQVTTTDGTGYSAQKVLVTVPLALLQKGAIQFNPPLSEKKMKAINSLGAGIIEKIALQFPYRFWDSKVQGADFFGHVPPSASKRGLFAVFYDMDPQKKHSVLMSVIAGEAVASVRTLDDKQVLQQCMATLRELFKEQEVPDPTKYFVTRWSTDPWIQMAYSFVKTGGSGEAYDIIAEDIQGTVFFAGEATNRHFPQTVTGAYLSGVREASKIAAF
Outline: as §1

[11] = molecular target: T12, FADS2 Fatty acid desaturase 2 (O95864) (Homo sapiens, UniProt O95864); conditions: SILAC H/L, HEK293T
T12 construct: In Situ Labelling of Cells with Hydrazine Probes for MS Experiments; endogenous in cells; host or cells: HEK293T and/or MDA-MB-231
Outline: as §1

[12] = molecular target: T13, PRCP Lysosomal ProX carboxypeptidase (P42785) (Homo sapiens, UniProt P42785); conditions: SILAC H/L, MDA-MB-231
T13 construct: endogenous in cells; host or cells: HEK293T or MDA-MB-231
Outline: as §1

[13] = molecular target: T14, PHYHD1 PhytanoylCoA dioxygenase (Q5SRE7) (Homo sapiens, UniProt Q5SRE7); conditions: SILAC H/L, MDA-MB-231
T14 construct: In Situ Labelling of Cells with Hydrazine Probes for MS Experiments; endogenous in cells; host or cells: HEK293T and/or MDA-MB-231
T14 sequence (Q5SRE7 whole entry): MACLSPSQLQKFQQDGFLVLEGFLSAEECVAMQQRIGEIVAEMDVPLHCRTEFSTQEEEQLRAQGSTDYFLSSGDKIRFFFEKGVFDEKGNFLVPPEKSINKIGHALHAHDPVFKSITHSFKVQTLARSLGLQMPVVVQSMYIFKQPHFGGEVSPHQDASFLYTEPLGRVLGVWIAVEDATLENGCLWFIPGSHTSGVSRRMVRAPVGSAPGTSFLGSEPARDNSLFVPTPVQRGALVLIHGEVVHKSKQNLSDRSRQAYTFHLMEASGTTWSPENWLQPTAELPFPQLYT
Outline: as §1

enrichment ratioavg ([1]; probe 2 1 mM 0.5 h vs probe 4): 18
competition ratioavg ([1]; probe 2 vs probe 2+10x probe 4): 3
enrichment ratioavg ([2]; probe 2 1 mM 0.5 h vs probe 4): 7
competition ratioavg ([2]; probe 2 vs probe 2+10x probe 4): 3
enrichment ratioavg ([3]; probe 2 1 mM 0.5 h vs probe 4): 7
competition ratioavg ([3]; probe 2 vs probe 2+10x probe 4): 0
enrichment ratioavg ([4]; probe 2 1 mM 0.5 h vs probe 4): 20
competition ratioavg ([4]; probe 2 vs probe 2+10x probe 4): 2
enrichment ratioavg ([5]; probe 2 1 mM 0.5 h vs probe 4): 15
competition ratioavg ([5]; probe 2 vs probe 2+10x probe 4): 1
enrichment ratioavg ([6]; probe 2 1 mM 0.5 h vs probe 4): 20
competition ratioavg ([6]; probe 2 vs probe 2+10x probe 4): 3
enrichment ratioavg ([7]; probe 2 1 mM 0.5 h vs probe 4): 19
competition ratioavg ([7]; probe 2 vs probe 2+10x probe 4): 3
enrichment ratioavg (CAT Catalase (P04040); probe 2 1 mM 0.5 h vs probe 4): 20
competition ratioavg (CAT Catalase (P04040); probe 2 vs probe 2+10x probe 4): 1
enrichment ratioavg ([8]; probe 2 1 mM 0.5 h vs probe 4): 20
competition ratioavg ([8]; probe 2 vs probe 2+10x probe 4): 4
enrichment ratioavg ([9]; probe 2 1 mM 0.5 h vs probe 4): 6
competition ratioavg ([9]; probe 2 vs probe 2+10x probe 4): 2
enrichment ratioavg ([10]; probe 2 1 mM 0.5 h vs probe 4): 17
competition ratioavg ([10]; probe 2 vs probe 2+10x probe 4): 2
enrichment ratioavg ([11]; probe 2 1 mM 0.5 h vs probe 4): 20
competition ratioavg ([11]; probe 2 vs probe 2+10x probe 4): 4
enrichment ratioavg ([12]; probe 2 1 mM 0.5 h vs probe 4): 15
competition ratioavg ([12]; probe 2 vs probe 2+10x probe 4): 4
enrichment ratioavg ([13]; probe 2 1 mM 0.5 h vs probe 4): 14
competition ratioavg ([13]; probe 2 vs probe 2+10x probe 4): 5
SMILES: C#CCCNC(=O)c1ccc(NN)cc1.Cl [probe 2, N-(but-3-yn-1-yl)-4-hydrazinylbenzamide hydrochloride]
